The values below come from ChEMBL document CHEMBL4421717, “Antagonists and agonists of bitter taste receptors and uses thereof” (2012).

Each structure is given as a SMILES string. Calls of active or inactive are those of the source. No cut-off for these calls is given here.

What all share (type): functional, cell-based
For assay [1], the target named is T1, Taste receptor type 2 member 43 (Homo sapiens) (UniProt P59537).
T1 sequence (whole entry): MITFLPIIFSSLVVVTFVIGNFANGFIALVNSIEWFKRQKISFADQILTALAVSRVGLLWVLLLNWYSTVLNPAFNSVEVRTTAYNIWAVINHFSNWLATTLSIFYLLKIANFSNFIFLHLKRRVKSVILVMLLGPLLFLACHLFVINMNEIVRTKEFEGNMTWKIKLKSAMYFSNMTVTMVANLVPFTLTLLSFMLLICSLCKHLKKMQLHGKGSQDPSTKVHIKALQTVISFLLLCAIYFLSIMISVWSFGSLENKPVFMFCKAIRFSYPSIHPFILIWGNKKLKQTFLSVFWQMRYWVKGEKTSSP
As to the kind of experiment: Antagonist activity at recombinant human N-terminal rat ST3 receptor-fused TAS2R43 expressed in HEK293T cells co-expressing Galpha16gust44 assessed as reduction in aristolochic acids-induced intracellular calcium level at 100 uM by FLIPR assay.

The target of assay [2] is Taste receptor type 2 member 40 (Homo sapiens) (UniProt P59535). As to the kind of experiment: Antagonist activity at recombinant human N-terminal rat ST3 receptor-fused TAS2R40 expressed in HEK293T cells co-expressing Galpha16gust44 assessed as inhibition of cohumulone-induced intracellular calcium level at 100 uM by FLIPR assay.
Assay [3] addresses T2, Taste receptor type 2 member 3 (Homo sapiens) (UniProt Q9NYW6).
T2 sequence (whole entry): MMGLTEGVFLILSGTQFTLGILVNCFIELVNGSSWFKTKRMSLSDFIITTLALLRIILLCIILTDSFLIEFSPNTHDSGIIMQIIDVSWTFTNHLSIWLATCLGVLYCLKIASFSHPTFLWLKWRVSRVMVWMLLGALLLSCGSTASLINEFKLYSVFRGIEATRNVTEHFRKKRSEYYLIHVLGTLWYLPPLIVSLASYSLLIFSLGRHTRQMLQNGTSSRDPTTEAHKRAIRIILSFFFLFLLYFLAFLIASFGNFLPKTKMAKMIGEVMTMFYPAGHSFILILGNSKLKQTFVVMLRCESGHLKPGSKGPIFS
Nature of the assay: Agonist activity at recombinant human N-terminal rat ST3 receptor-fused TAS2R3 expressed in HEK293T cells co-expressing Galpha16gust44 assessed as effect on intracellular calcium level at 100 uM by FLIPR assay. On the technique in general: Calcium flux is commonly read through the fluorescence of an indicator in the cells.

In assay [4] the target is T3, Taste receptor type 2 member 1 (Homo sapiens) (UniProt Q9NYW7).
T3 sequence (whole entry): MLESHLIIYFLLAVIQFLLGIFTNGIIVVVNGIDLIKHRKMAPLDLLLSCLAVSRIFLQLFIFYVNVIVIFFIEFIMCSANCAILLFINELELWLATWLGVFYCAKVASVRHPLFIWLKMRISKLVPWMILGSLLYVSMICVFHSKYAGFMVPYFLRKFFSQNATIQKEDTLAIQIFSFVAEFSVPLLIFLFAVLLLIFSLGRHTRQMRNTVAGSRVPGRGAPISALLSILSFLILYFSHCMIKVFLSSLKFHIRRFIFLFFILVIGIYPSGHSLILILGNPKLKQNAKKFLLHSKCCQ
As to the kind of experiment: Activity at recombinant human N-terminal rat ST3 receptor-fused TAS2R1 expressed in HEK293T cells co-expressing Galpha16gust44 assessed as effect on trans-isocohumulone-induced intracellular calcium level at 100 uM by FLIPR assay.

Assay [5] has as its target Taste receptor type 2 member 31 (Homo sapiens, UniProt P59538). Nature of the assay: Agonist activity at recombinant human N-terminal rat ST3 receptor-fused TAS2R44 expressed in HEK293T cells co-expressing Galpha16gust44 assessed as effect on intracellular calcium level by FLIPR assay.
Assay [6] deals with T4, Taste receptor type 2 member 46 (Homo sapiens) (UniProt P59540).
T4 sequence (whole entry): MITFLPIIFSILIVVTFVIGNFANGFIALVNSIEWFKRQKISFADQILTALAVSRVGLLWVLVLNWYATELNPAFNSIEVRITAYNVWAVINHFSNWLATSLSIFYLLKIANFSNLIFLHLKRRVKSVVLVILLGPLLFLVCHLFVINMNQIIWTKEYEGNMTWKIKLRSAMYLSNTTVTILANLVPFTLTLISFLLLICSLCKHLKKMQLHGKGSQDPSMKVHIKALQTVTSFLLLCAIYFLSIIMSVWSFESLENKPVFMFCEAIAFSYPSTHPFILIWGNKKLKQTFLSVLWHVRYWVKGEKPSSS
Nature of the assay: Antagonist activity at recombinant human N-terminal rat ST3 receptor-fused TAS2R46 expressed in HEK293T cells co-expressing Galpha16gust44 assessed as inhibition of picrotoxinin-induced intracellular calcium level at 100 uM by FLIPR assay.

Assay [7] deals with T5, Taste receptor type 2 member 38 (Homo sapiens) (UniProt P59533).
T5 sequence (whole entry): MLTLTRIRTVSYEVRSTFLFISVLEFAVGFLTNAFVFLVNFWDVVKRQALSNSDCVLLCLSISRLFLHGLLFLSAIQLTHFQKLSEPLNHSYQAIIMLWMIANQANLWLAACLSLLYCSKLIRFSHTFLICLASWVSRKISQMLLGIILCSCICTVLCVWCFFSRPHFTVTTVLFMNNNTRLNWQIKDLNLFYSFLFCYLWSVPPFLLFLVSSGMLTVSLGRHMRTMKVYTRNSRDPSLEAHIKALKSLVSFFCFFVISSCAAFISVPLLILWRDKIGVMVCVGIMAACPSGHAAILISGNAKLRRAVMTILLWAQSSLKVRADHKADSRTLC
As to the kind of experiment: Activity at recombinant human N-terminal rat ST3 receptor-fused TAS2R38 expressed in HEK293T cells co-expressing Galpha16gust44 assessed as effect on phenylthiocarbamide-induced intracellular calcium level at 100 uM by FLIPR assay.

Assay [8] concerns the target T6, Taste receptor type 2 member 9 (Homo sapiens) (UniProt Q9NYW1).
T6 sequence (whole entry): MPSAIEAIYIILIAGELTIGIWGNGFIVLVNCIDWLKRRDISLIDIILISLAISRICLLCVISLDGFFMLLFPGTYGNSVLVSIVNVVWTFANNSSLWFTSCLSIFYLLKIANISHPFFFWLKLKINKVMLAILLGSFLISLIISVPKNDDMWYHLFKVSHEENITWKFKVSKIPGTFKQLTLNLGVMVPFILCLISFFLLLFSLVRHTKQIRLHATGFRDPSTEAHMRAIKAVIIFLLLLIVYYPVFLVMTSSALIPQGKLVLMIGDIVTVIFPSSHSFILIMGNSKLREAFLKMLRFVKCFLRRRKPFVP
Nature of the assay: Activity at recombinant human N-terminal rat ST3 receptor-fused TAS2R9 expressed in HEK293T cells co-expressing Galpha16gust44 assessed as effect on ofloxacin-induced intracellular calcium level at 100 uM by FLIPR assay.

Chain of Taste receptor type 2 member 40 (Homo sapiens) (P59535 whole entry, the tested form may be a part): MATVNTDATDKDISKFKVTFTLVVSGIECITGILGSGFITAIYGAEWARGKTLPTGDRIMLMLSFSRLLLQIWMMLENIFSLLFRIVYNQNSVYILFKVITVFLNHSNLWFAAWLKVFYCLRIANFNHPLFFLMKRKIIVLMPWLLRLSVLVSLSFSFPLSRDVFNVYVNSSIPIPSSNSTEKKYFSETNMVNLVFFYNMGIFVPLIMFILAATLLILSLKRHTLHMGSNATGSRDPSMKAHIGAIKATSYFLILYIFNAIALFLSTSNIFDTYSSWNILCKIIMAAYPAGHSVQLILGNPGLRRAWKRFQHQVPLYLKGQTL
Chain of Taste receptor type 2 member 31 (P59538 whole entry, the tested form may be a part): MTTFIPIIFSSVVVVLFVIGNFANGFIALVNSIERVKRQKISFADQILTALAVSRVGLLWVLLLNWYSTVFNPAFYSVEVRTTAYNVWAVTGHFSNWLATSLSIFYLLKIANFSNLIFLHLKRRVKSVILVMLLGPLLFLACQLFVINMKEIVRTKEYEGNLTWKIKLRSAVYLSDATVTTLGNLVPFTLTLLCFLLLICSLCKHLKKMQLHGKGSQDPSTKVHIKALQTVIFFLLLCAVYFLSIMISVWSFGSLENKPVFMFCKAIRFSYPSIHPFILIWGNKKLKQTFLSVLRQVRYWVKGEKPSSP

On to `C/C1=C\C[C@H](O)/C(C)=C/[C@H]2OC(=O)[C@@H](C)C2CC1` (some centres undefined), for which the inhibition result in assay [1], in assay [2] and in assay [6] was “Active” throughout. Further, the outcome in assay [3], in assay [4], in assay [7] and in assay [8] was inactive. Also, the EC50 (usually the concentration at which the effect is half-maximal) in assay [5] is 31.5 µM.
For the compound `C/C1=C\C[C@H](O)[C@@H](C)C[C@H]2OC(=O)[C@@H](C)C2CC1` (some centres undefined), in assay [1], the inhibition (in general, the percentage by which the read-out fell short of the control) stood at 100%. The inhibition entry in assay [2] and in assay [6] was “Active” each time. The result in assay [4], in assay [7] and in assay [8] was inactive.
